Source: patent publication US7897638B2, “Synthesis of nitrodibenzylfuran chromophore for photodeprotection of organic molecules” (Philadelphia Health & Education Corporation, priority 2005, dated 2011)
Where two headings read alike, the source gives them in different places.

Legend:
Two-photon photolysis = assay type: physicochemical
Description: Two-photon photolysis (2PP) of a solution contains MNI-glutamate (1.4 mM) and NDBF-EGTA (0.1 mM), by raster scanning the solution (256 pulses, 4 ms each, 300 mW).

[1] = known standard; cited from earlier work
[2] = Photochemical properties of caged compounds (Table 1); assay type: physicochemical; conditions: for ε/M^−1 cm^−1 (extinction coefficient): NDBF chromophore; for ε · φ (efficiency of use of the incident light): product of extinction coefficient and quantum yield
From the text: The extinction coefficient (ε) and the quantum yield (φ) are the two photochemical properties that define the efficiency of a chromophore. The former is an absolute value of a chromophore; the latter depends upon the exact nature of the photolyzed bond, as well as the chromophore itself. The four most widely used caged compounds (ATP, IP3, glutamate, Ca) with the ortho-nitrobenzyl chromophore have ε and φ in the range of 430-970 and 0.14-0.63. The product (ε·φ) for each caged compound defines the efficiency of use of the incident light.

[3] = widely used, commercially available caged compounds; cited from earlier work
[4] = Quantum yield of photolysis by comparison with MNI-glutamate, HPLC; assay type: physicochemical; conditions: photolyzed at 350 nm, relative to MNI-glutamate; listed as NDBF Calcium
From the text: Inventors measured the quantum yield of photolysis of NDBF-EGTA by comparison with a known standard, 4-methoxy-7-nitroindolinyl(MNI)-glutamate (Matsuzaki, et al., 1999). A solution containing NDBF-EGTA and MNI-glutamate was photolyzed at 350 nm, in order to determine the relative % photolysis of the two caged compounds. The concentrations of the two compounds were set so that their chromophores would absorb the same amount of light (MNI/NDBF ratio 3.7:1), and so that the total optical density was 0.4. Under these conditions the same number of excited states are created simultaneously for both cages, making determination of the quantum for NBDF-EGTA more reliable. As a control, both cages were photolyzed separately to check that there was no interference from simultaneous photolysis. Inosine was also included in the photolysis reaction mixture, as a photochemically inert standard. MNI-glutamate has a quantum yield of photolysis of 0.085. […] Saturating [Ca] had no effect on this value.

In the case of `COc1ccc([N+](=O)[O-])c2c1CCN2C(=O)CC[C@H](N)C(=O)O` [MNI-glutamate, 4-methoxy-7-nitroindolinyl(MNI)-glutamate, reference compound], the 2-photon cross-section (Two-photon photolysis) is listed as 0.06 GM and the “quantum yield of photolysis” value [1] is listed as 0.085.
With nitrodibenzylfuran [NDBF] the “ε/M^−1 cm^−1 (extinction coefficient)” value [2] was 18,400 M^−1 cm^−1, the “ε · φ (efficiency of use of the incident light)” value [2] was “above 10,000” and the 2-photon cross-section (Two-photon photolysis) was “at least 0.3 GM”.
In the case of `COc1cc(COP2(=O)OCC3OC(n4cnc5c(N)ncnc54)C(O)C3O2)c([N+](=O)[O-])cc1OC` (centres unmarked) [DMNB cAMP], the “Rate/s^−1 (rate of release)” value [3] is listed as 300 s⁻¹ and the “φ (quantum yield)” value [3] is listed as 0.05.
In the case of NDBF-EGTA, the “ε/M^−1 cm^−1 (extinction coefficient)” value [2] is reported as 18,400 M^−1 cm^−1, the “Rate/s^−1 (rate of release)” value ([2]; NDBF-caged calcium) is reported as 25,000 s^−1 and the “ε · φ (efficiency of use of the incident light)” value [2] is reported as 11,000. For the same compound, the “φ (quantum yield of photolysis)” value [4] was 0.6 and the 2-photon cross-section (Two-photon photolysis) was 0.3-0.6 GM.
In the case of `COc1cc(COP(=O)(O)OP(=O)(O)OP(=O)(O)OCC2OC(n3cnc4c(N)ncnc43)C(O)C2O)c([N+](=O)[O-])cc1OC` (centres unmarked) [DMNB ATP], the “Rate/s^−1 (rate of release)” value [3] is listed as 18 s⁻¹ and the “φ (quantum yield)” value [3] is listed as 0.07.
